In data set [1] the test system is HBV. In words: Anti-HBV activity, HepG2.2.15 stable transfected cell line, HBV DNA from secreted virions by realtime PCR. In kind it is cell-based. The conditions noted are these: Hepatitis B virus, HepG2.2.15, 144 h.
The nature of data set [2]: Cytotoxicity in HepG2 cells, Resazurin viability assay. The conditions noted are these: human.
Data set [3] deals with HBV. The experiment in a line: Anti-HBV activity, HepG2.117 inducibly HBV producing cell line (Tet-off), intracellular HBV DNA by realtime PCR. The conditions noted are these: Hepatitis B virus, HepG2.117, 72 h. In kind it is cell-based.
Where [4] appears, read: HepG2.2.15 cells, 6 days of treatment, HBV DNA from secreted virions, read-out: HepG2 2.15 EC50.
The mark [5] stands for this setting: HepG2 cells, HepG2 4 days CC50 (μM), incubated for 4 days, Resazurin assay.
Setting [6] is: HepG2.117 cells, 3 days of treatment, intracellular HBV DNA, read-out: HepG2 117 EC50.

Molecules are shown by their SMILES.

From patent publication US9884818B2, “Sulphamoylpyrrolamide derivatives and the use thereof as medicaments for the treatment of hepatitis B” (Janssen Sciences Ireland UC, priority 2013, dated 2018) come the findings set out here.

One may read the EC50 as the concentration giving half of the maximal effect. The term CC50 denotes the concentration giving 50% cytotoxicity. Higher therefore signals better tolerance by the cells.

For `C[C@H](CO)NS(=O)(=O)c1cc(C(=O)Nc2ccc(F)c(C(F)(F)F)c2)n(C)c1` [Compound 41, N-[4-fluoro-3-(trifluoromethyl)phenyl]-4-[[(1R)-2-hydroxy-1-methyl-ethyl]sulfamoyl]-1-methyl-pyrrole-2-carboxamide], the EC50 in the data set with HBV [1] (setting [4]) stood at 0.52 µM; with HBV [3] (setting [6]) it was 0.33 µM. In data set [2] (setting [5]), this compound came in with a CC50 at 4 days of over 25 µM.
For `Cn1cc(S(=O)(=O)N[C@H]2CCOC2)cc1C(=O)Nc1ccc(F)c(C(F)(F)F)c1` [Compound 42, N-[4-fluoro-3-(trifluoromethyl)phenyl]-1-methyl-4-[[(3S)-tetrahydrofuran-3-yl]sulfamoyl]pyrrole-2-carboxamide], in that order: 0.54 µM, 0.72 µM and over 25 µM.
Turning to `Cn1cc(S(=O)(=O)NC2(C)COC2)cc1C(=O)Nc1ccc(F)c(C(F)(F)F)c1` [Compound 43, N-[4-fluoro-3-(trifluoromethyl)phenyl]-1-methyl-4-[(3-methyloxetan-3-yl)-sulfamoyl]pyrrole-2-carboxamide], the concentration for a half-maximal effect (EC50) in the data set with HBV [1] (setting [4]) was found to be 0.11 µM; with HBV [3] (setting [6]), 0.13 µM. The compound further displayed a CC50 at 4 days in data set [2] (setting [5]) of over 25 µM.
The matching figures for `CC(C)NS(=O)(=O)c1cc(C(=O)Nc2ccc(F)c(C(F)(F)F)c2)n(C)c1` [Compound 44, N-[4-fluoro-3-(trifluoromethyl)phenyl]-4-(isopropylsulfamoyl)-1-methyl-pyrrole-2-carboxamide]: 0.37 µM, 0.26 µM and over 25 µM.
Turning to `Cn1cc(S(=O)(=O)NC2(C)COC2)cc1C(=O)Nc1cc(F)cc(C(F)(F)F)c1` [Compound 45, N-[3-fluoro-5-(trifluoromethyl)phenyl]-1-methyl-4-[(3-methyloxetan-3-yl)sulfamoyl]pyrrole-2-carboxamide], the EC50 turned out to be 0.32 µM in the data set with HBV [1] (setting [4]) and 0.34 µM in the data set with HBV [3] (setting [6]). The compound further displayed a CC50 at 4 days in data set [2] (setting [5]) of over 25 µM.
In the case of `CC(C)NS(=O)(=O)c1cc(C(=O)Nc2cc(F)c(F)c(Br)c2)n(C)c1` [Compound 46, N-(3-bromo-4,5-difluoro-phenyl)-4-(isopropylsulfamoyl)-1-methyl-pyrrole-2-carboxamide], the figures for the EC50 with HBV [1] (setting [4]) and with HBV [3] (setting [6]) were 0.12 µM and 0.17 µM, respectively. Also, in data set [2] (setting [5]), the CC50 at 4 days is over 25 µM.
For `CC[C@@H](C)NS(=O)(=O)c1cc(C(=O)Nc2cc(F)c(F)c(Br)c2)n(C)c1` [Compound 47, N-(3-bromo-4,5-difluoro-phenyl)-1-methyl-4-[[(1R)-1-methylpropyl]-sulfamoyl]pyrrole-2-carboxamide], in that order: 0.1 µM, 0.1 µM and over 25 µM.
The matching figures for `Cn1cc(S(=O)(=O)NC2(C)COC2)cc1C(=O)Nc1cc(F)c(F)c(Br)c1` [Compound 48, N-(3-bromo-4,5-difluoro-phenyl)-1-methyl-4-[(3-methyloxetan-3-yl)-sulfamoyl]pyrrole-2-carboxamide]: 0.05 µM, 0.06 µM and over 25 µM.
The matching figures for `COC(=O)C(C)(C)NS(=O)(=O)c1cc(C(=O)Nc2ccc(F)c(C)c2)n(C)c1` [Compound 49, methyl 2-[[5-[(4-fluoro-3-methyl-phenyl)carbamoyl]-1-methyl-pyrrol-3-yl]sulfonylamino]-2-methyl-propanoate]: 0.07 µM, 0.02 µM and over 25 µM.
`Cn1cc(S(=O)(=O)NC2(C)COC2)cc1C(=O)Nc1ccc(F)c(C#N)c1` [Compound 50, N-(3-cyano-4-fluorophenyl)-1-methyl-4-[(3-methyloxetan-3-yl)sulfamoyl]-1H-pyrrole-2-carboxamide]: the EC50 is 0.07 µM in the data set with HBV [1] (setting [4]) and 0.05 µM with HBV [3] (setting [6]). Moreover, the CC50 at 4 days in data set [2] (setting [5]) was over 25 µM.
Regarding `Cn1cc(S(=O)(=O)NC2(C)COC2)cc1C(=O)Nc1ccc(C#N)c(C(F)(F)F)c1` [Compound 51, N-[4-cyano-3-(trifluoromethyl)phenyl]-1-methyl-4-[(3-methyloxetan-3-yl)-sulfamoyl]-1H-pyrrole-2-carboxamide], the EC50 in the data set on HBV [1] (read-out: HepG2 2.15 EC50 (μM)) and in the data set on HBV [3] (read-out: HepG2 117 EC50 (μM)) was over 1 µM in each case. For the same compound, the CC50 at 4 days in data set [2] was over 25 µM.
In the case of `CC(C)NS(=O)(=O)c1cc(C(=O)Nc2cc(F)c(F)c(C#N)c2)n(C)c1` [Compound 52, N-(3-cyano-4,5-difluoro-phenyl)-4-(isopropylsulfamoyl)-1-methyl-pyrrole-2-carboxamide], the EC50 in the data set on HBV [1] (setting [4]) was determined as 0.26 µM; in the data set with HBV [3] (setting [6]), 0.33 µM. Also, the cytotoxic concentration (CC50) at 4 days in data set [2] (setting [5]) is over 25 µM.
For `Cn1cc(S(=O)(=O)NC(C)(C)C)cc1C(=O)Nc1cc(F)cc(C#N)c1` [Compound 53, 4-(tert-butylsulfamoyl)-N-(3-cyano-5-fluoro-phenyl)-1-methyl-pyrrole-2-carboxamide], in that order: 0.26 µM, 0.18 µM and over 25 µM.
The matching figures for `Cn1cc(S(=O)(=O)NC2(C)COC2)cc1C(=O)Nc1cc(F)cc(C#N)c1` [Compound 54, N-(3-cyano-5-fluoro-phenyl)-1-methyl-4-[(3-methyloxetan-3-yl)-sulfamoyl]pyrrole-2-carboxamide]: 0.2 µM, 0.25 µM and over 25 µM.
In the case of `Cn1cc(S(=O)(=O)NC2(C)COC2)cc1C(=O)Nc1cccc(C#N)c1` [Compound 55, N-(3-cyanophenyl)-1-methyl-4-[(3-methyloxetan-3-yl)sulfamoyl]pyrrole-2-carboxamide], the results for the EC50 in the data set with HBV [1] (setting [4]) and with HBV [3] (setting [6]) were 0.21 µM and 0.11 µM, respectively. The compound also showed a CC50 at 4 days in data set [2] (setting [5]) of over 25 µM.
The matching figures for `[2H]c1cc(F)c(C)c([2H])c1NC(=O)c1cc(S(=O)(=O)NC2(C)COC2)cn1C` [Compound 56, N-(2,6-dideuterio-4-fluoro-3-methyl-phenyl)-1-methyl-4-[(3-methyloxetan-3-yl)sulfamoyl]pyrrole-2-carboxamide]: 0.02 µM, under 0.02 µM and over 25 µM.
Regarding `CC(C)NS(=O)(=O)c1cc(C(=O)Nc2cc(F)c(F)c(Cl)c2)n(C)c1` [Compound 57, N-(3-chloro-4,5-difluoro-phenyl)-4-(isopropylsulfamoyl)-1-methyl-pyrrole-2-carboxamide], the concentration giving a half-maximal response (EC50) in the data set with HBV [1] (setting [4]) was determined as 0.06 µM; with HBV [3] (setting [6]), 0.05 µM. In addition, in data set [2] (setting [5]), the CC50 at 4 days was over 25 µM.
`Cn1cc(S(=O)(=O)NC(C)(C)C)cc1C(=O)Nc1cc(F)c(F)c(Cl)c1` [Compound 58, 4-(tert-butylsulfamoyl)-N-(3-chloro-4,5-difluoro-phenyl)-1-methyl-pyrrole-2-carboxamide]: the EC50 in the data set on HBV [1] (setting [4]) amounted to 0.09 µM; in the data set with HBV [3] (setting [6]), 0.06 µM. The compound further registered a CC50 at 4 days in data set [2] (setting [5]) of over 25 µM.
For `Cn1cc(S(=O)(=O)NC2(C)COC2)cc1C(=O)Nc1cc(F)c(F)c(Cl)c1` [Compound 59, N-(3-chloro-4,5-difluoro-phenyl)-1-methyl-4-[(3-methyloxetan-3-yl)-sulfamoyl]pyrrole-2-carboxamide], the EC50 in the data set with HBV [1] (setting [4]) and in the data set on HBV [3] (setting [6]) was 0.03 µM in each case. The CC50 at 4 days in data set [2] (setting [5]) was over 25 µM.
For the compound `C[C@@H](NS(=O)(=O)c1cc(C(=O)Nc2cc(F)c(F)c(Cl)c2)n(C)c1)C(F)(F)F` [Compound 60, N-(3-chloro-4,5-difluoro-phenyl)-1-methyl-4-[[(1R)-2,2,2-trifluoro-1-methyl-ethyl]sulfamoyl]pyrrole-2-carboxamide], the values for the EC50 in the data set on HBV [1] (setting [4]) and in the data set with HBV [3] (setting [6]) were 0.02 µM and 0.03 µM, respectively. In data set [2] (setting [5]), the CC50 at 4 days stood at 24.1 µM.
For `CNC(=O)C(C)(C)NS(=O)(=O)c1cc(C(=O)Nc2ccc(F)c(C)c2)n(C)c1` [Compound 62, 4-[[1,1-dimethyl-2-(methylamino)-2-oxo-ethyl]sulfamoyl]-N-(4-fluoro-3-methyl-phenyl)-1-methyl-pyrrole-2-carboxamide], in that order: 0.27 µM, 0.14 µM and over 25 µM.
For `Cc1cc(NC(=O)c2cc(S(=O)(=O)NC(C)(C)C(=O)N(C)C)cn2C)ccc1F` [Compound 63, 4-[[2-(dimethylamino)-1,1-dimethyl-2-oxo-ethyl]sulfamoyl]-N-(4-fluoro-3-methyl-phenyl)-1-methyl-pyrrole-2-carboxamide], in that order: 0.06 µM, 0.04 µM and over 25 µM.
For `Cc1cc(NC(=O)c2cc(S(=O)(=O)NC(C)(C)C(N)=O)cn2C)ccc1F` [Compound 64, 4-[(2-amino-1,1-dimethyl-2-oxo-ethyl)sulfamoyl]-N-(4-fluoro-3-methyl-phenyl)-1-methyl-pyrrole-2-carboxamide], in that order: 0.13 µM, 0.05 µM and over 25 µM.
For the compound `Cn1cc(S(=O)(=O)NC2(C)CC(F)(F)C2)cc1C(=O)Nc1cc(F)c(F)c(Cl)c1` [Compound 65, N-(3-chloro-4,5-difluoro-phenyl)-4-[(3,3-difluoro-1-methyl-cyclo-butyl)sulfamoyl]-1-methyl-pyrrole-2-carboxamide], the EC50 in the data set on HBV [1] (setting [4]) and in the data set with HBV [3] (setting [6]) was 0.01 µM in each case. Also, the CC50 at 4 days in data set [2] (setting [5]) was over 25 µM.
As for `CCC(C)(C)NS(=O)(=O)c1cc(C(=O)Nc2cc(F)c(F)c(Cl)c2)n(C)c1` [Compound 66, N-(3-chloro-4,5-difluoro-phenyl)-4-(1,1-dimethylpropylsulfamoyl)-1-methyl-pyrrole-2-carboxamide], the half-maximal effective concentration (EC50) in the data set with HBV [1] (setting [4]) and in the data set on HBV [3] (setting [6]) was 0.03 µM in each case. Also, the CC50 at 4 days in data set [2] (setting [5]) is over 25 µM.
In the case of `[2H]c1cc(F)c(C)c([2H])c1NC(=O)c1cc(S(=O)(=O)NC(C)(C)C)cn1C` [Compound 67, 4-(tert-butylsulfamoyl)-N-(2,6-dideuterio-4-fluoro-3-methyl-phenyl)-1-methyl-pyrrole-2-carboxamide], the EC50 stood at 0.02 µM in the data set on HBV [1] (setting [4]) and 0.03 µM with HBV [3] (setting [6]). Further, the CC50 at 4 days in data set [2] (setting [5]) was over 25 µM.
